What was measured:
mTOR kinase = target: T1, mTOR kinase (Homo sapiens, UniProt P42345); assay: mTOR kinase TR-FRET assay; format: biochemical; settings: read-out: mTO R
T1 construct: purchased Millipore, USA
Method in brief: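 Compounds preincubated 60 min with mTOR (5 ng) in HEPES pH 7.5, EGTA, MnCl2; ULight-p70 S6K Thr389 peptide (50 nM) and ATP (20 μM) then added, 60 min at room temperature. EDTA-stopped, Eu-anti-phospho antibody detection by TR-FRET (665/615 nm); IC50 from variable-slope sigmoidal fit.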

[1] = target: T2, PI3Kα (wild-type), P110/P85α (Homo sapiens, UniProt P42336); assay: PI3 Kinase TR-FRET assay, PI3Kα (wild-type); format: biochemical
T2 construct: made in house; host or cells: SF9 insect cells
T2 sequence (P42336 whole entry): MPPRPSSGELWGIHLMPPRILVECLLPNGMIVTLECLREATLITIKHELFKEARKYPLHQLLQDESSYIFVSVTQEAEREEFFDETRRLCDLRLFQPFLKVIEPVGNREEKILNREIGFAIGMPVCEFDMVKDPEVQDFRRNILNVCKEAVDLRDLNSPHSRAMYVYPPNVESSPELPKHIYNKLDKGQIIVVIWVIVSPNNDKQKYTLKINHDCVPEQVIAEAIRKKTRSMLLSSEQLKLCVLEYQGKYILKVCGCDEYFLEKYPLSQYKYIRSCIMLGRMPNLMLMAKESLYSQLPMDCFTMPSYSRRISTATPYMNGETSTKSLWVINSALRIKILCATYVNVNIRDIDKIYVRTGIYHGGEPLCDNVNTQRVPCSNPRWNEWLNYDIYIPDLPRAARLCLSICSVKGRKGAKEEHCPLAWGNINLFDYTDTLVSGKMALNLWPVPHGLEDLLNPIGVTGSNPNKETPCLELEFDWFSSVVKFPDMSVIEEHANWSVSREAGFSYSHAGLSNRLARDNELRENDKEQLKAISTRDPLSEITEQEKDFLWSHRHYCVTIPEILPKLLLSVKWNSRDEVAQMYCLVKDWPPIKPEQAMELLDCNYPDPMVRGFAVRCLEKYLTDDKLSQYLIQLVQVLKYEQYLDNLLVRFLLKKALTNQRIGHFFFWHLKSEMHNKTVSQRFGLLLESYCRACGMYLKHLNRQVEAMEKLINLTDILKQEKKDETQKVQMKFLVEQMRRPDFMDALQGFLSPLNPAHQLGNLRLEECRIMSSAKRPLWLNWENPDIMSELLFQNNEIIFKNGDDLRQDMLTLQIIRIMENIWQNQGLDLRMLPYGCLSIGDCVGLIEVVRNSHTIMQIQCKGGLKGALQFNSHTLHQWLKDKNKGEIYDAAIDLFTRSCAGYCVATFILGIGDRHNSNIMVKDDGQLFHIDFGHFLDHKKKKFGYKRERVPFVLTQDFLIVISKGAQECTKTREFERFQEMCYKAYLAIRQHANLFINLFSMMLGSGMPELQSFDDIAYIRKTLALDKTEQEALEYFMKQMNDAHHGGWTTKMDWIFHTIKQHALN
T2 sequence (P27986 whole entry partner): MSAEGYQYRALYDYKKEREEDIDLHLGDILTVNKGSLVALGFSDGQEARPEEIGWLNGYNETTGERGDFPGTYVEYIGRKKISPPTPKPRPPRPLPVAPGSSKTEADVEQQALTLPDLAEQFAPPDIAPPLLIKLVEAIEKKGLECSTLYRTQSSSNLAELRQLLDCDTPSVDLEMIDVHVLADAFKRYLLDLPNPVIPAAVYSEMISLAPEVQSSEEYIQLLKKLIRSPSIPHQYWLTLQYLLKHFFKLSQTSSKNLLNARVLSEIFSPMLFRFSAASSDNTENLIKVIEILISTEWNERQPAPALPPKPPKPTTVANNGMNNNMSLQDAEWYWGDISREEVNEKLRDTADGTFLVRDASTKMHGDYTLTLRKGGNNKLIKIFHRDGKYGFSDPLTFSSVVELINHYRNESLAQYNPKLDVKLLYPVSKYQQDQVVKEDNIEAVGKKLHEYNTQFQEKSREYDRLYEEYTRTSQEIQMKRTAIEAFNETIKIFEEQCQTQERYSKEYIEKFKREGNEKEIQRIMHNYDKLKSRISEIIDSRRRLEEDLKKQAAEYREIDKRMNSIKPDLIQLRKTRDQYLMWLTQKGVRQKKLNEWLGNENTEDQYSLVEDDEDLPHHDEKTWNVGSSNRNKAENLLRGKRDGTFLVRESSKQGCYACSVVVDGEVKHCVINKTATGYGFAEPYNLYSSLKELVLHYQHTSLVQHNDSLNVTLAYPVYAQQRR
Method in brief: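 Sf9-expressed His-purified P110/P85α (5 ng) preincubated 60 min RT with compound and PIP2 in buffer with 40 mM MgCl2, 5 mM DTT; reaction started with ATP (PIP2 and ATP both 10 μM), 30 min RT. PIP3 detected by TR-FRET displacement, 665/615 nm ratio; IC50 from dose-response curves.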

Row | IC50 (mTOR kinase) | IC50 [1] | Compound
1 | < 50 nM | 50 to 200 nM | CN(C)C(=O)c1ccc(NC(=O)Nc2ccc(-c3nc(N4CCOCC4)c4ccc(C(C)(C)O)cc4n3)cc2F)cc1 [Example 290, 4-(3-(2-fluoro-4-(7-(2-hydroxypropan-2-yl)-4-morpholino-quinazolin-2-yl)phenyl)ureido)-N,N-dimethyl-benzamide]
2 | < 50 nM | < 50 nM | CN(C)C(=O)c1ccc(NC(=O)Nc2ccc(-c3nc(N4CCOCC4)c4ccc(-c5ccc(C(=O)O)o5)cc4n3)cc2)cc1 [Example 10, 5-(2-(4-(3-(4-(dimethylcarbamoyl)phenyl)ureido)phenyl)-4-morpholino-quinazolin-7-yl)furan-2-carboxylic acid]
3 | 201 to 10000 nM | 201 to 10000 nM | CN(C)C(=O)c1ccc(NC(=O)Nc2ccc(-c3nc(N4CCOCC4)c4ccc(-c5cncnc5)cc4n3)cc2F)c(F)c1 [Example 139, 3-fluoro-4-(3-(2-fluoro-4-(4-morpholino-7-(pyrimidin-5-yl)quinazolin-2-yl)phenyl)ureido)-N,N-dimethyl-benzamide]
4 | < 50 nM | < 50 nM | CN(C)C(=O)c1ccc(NC(=O)Nc2ccc(-c3nc(N4CCOCC4)c4ncc(-c5cncnc5)cc4n3)cc2)cc1F [Example 262, 2-fluoro-N,N-dimethyl-4-(3-(4-(4-morpholino-7-(pyrimidin-5-yl)pyrido[3,2-d]pyrimidin-2-yl)phenyl)ureido)-benzamide]
5 | < 50 nM | 201 to 10000 nM | Cc1ccc(-c2ccc3c(N4CCOCC4)nc(-c4ccc(NC(=O)Nc5ccc(N6CCCC6=O)cc5)cc4)nc3c2)o1 [Example 18, 1-(4-(7-(5-methylfuran-2-yl)-4-morpholino-quinazolin-2-yl)phenyl)-3-(4-(2-oxopyrrolidin-1-yl)phenyl)urea]
6 | 201 to 10000 nM | 201 to 10000 nM | CN(C)C(=O)c1ccc(NC(=O)Nc2ccc(-c3nc(N4CCOCC4)c4ccc(-c5ccco5)cc4n3)cc2)c(Cl)c1 [Example 171, 3-chloro-4-(3-(4-(7-(furan-2-yl)-4-morpholino-quinazolin-2-yl)phenyl)ureido)-N,N-dimethyl-benzamide]
7 | < 50 nM | < 50 nM | CN(C)CCN(C)C(=O)c1ccc(NC(=O)Nc2ccc(-c3nc(N4CCOCC4)c4ccc(-c5ccco5)cc4n3)cc2)cc1 [Example 236, N-(2-(dimethylamino)ethyl)-4-(3-(4-(7-(furan-2-yl)-4-morpholino-quinazolin-2-yl)phenyl)ureido)-N-methyl-benzamide]
8 | 50 to 200 nM | 50 to 200 nM | CN(C)C(=O)c1ccc(NC(=O)Nc2ccc(-c3nc(N4CCOCC4)c4ccc(-c5ccccn5)cc4n3)cc2F)cc1 [Example 156, 4-(3-(2-fluoro-4-(4-morpholino-7-(pyridin-2-yl)quinazolin-2-yl)phenyl)ureido)-N,N-dimethyl-benzamide]
9 | < 50 nM | 201 to 10000 nM | CN(C)C(=O)c1ccc(NC(=O)Nc2ccc(-c3nc(N4CCOCC4)c4ccc(-c5cncnc5)cc4n3)c(F)c2)cn1 [Example 251, 5-(3-(3-fluoro-4-(4-morpholino-7-(pyrimidin-5-yl)quinazolin-2-yl)phenyl)ureido)-N,N-dimethylpicolinamide]
10 | 50 to 200 nM | 50 to 200 nM | COc1ccc(-c2ccc3c(N4CCOCC4)nc(-c4ccc(NC(=O)Nc5ccc(C(=O)N(C)C)cc5)cc4F)nc3c2)cn1 [Example 258, 4-(3-(3-fluoro-4-(7-(6-methoxypyridin-3-yl)-4-morpholino-quinazolin-2-yl)phenyl)ureido)-N,N-dimethyl-benzamide]
11 | < 50 nM | 50 to 200 nM | CNC(=O)c1ccc(NC(=O)Nc2ccc(-c3nc(N4CCOCC4)c4ccc(-c5ccc(C)o5)cc4n3)cc2)cc1 [Example 56, N-methyl-4-(3-{4-[7-(5-methyl-furan-2-yl)-4-morpholin-4-yl-quinazolin-2-yl]-phenyl}-ureido)-benzamide]
12 | 50 to 200 nM | 50 to 200 nM | Cc1ccc(-c2ccc3c(N4CCOCC4)nc(-c4ccc(NC(=O)Nc5ccc(C(=O)N(C)C)cc5)cc4F)nc3c2)o1 [Example 239, 4-(3-(3-fluoro-4-(7-(5-methylfuran-2-yl)-4-morpholino-quinazolin-2-yl)phenyl)ureido)-N,N-dimethyl-benzamide]
13 | < 50 nM | 50 to 200 nM | CN(C)CCNC(=O)c1ccc2c(N3CCOCC3)nc(-c3ccc(NC(=O)Nc4ccc(C(=O)N(C)C)cc4)cc3)nc2c1 [Example 7, 2-[4-{3-(4-Dimethycarbamoyl-phenyl)-Ureido]-phenyl}-4-morpholin-4-yl-quinazoline-7-carboxylic acid (2-dimethylamino-ethyl)-amide]
14 | < 50 nM | < 50 nM | COc1ncccc1-c1ccc2c(N3CCOCC3)nc(-c3ccc(NC(=O)Nc4ccc(C(=O)N(C)C)cc4)cc3)nc2c1 [Example 163, 4-(3-(4-(7-(2-methoxypyridin-3-yl)-4-morpholino-quinazolin-2-yl)phenyl)ureido)-N,N-dimethyl-benzamide]
15 | 50 to 200 nM | < 50 nM | COc1ccc(-c2ccc3c(N4CCOCC4)nc(-c4ccc(NC(=O)Nc5ccc(C(=O)N(C)C)cc5F)cc4)nc3c2)cn1 [Example 170, 3-fluoro-4-(3-(4-(7-(6-methoxypyridin-3-yl)-4-morpholino-quinazolin-2-yl)phenyl)ureido)-N,N-dimethyl-benzamide]
16 | < 50 nM | 50 to 200 nM | CC1CN(c2nc(-c3ccc(NC(=O)Nc4ccc(C(=O)N(C)C)cc4)c(F)c3)nc3cc(-c4cncnc4)ccc23)CCO1 (stereo not drawn) [Example 144, 4-(3-(2-fluoro-4-(4-(2-methylmorpholino)-7-(pyrimidin-5-yl)quinazolin-2-yl)phenyl)ureido)-N,N-dimethyl-benzamide]
17 | 50 to 200 nM | < 50 nM | CN(C)C(=O)c1ccc(NC(=O)Nc2ccc(-c3nc(N4CCOCC4)c4cc(F)c(-c5cccnc5)cc4n3)cn2)cc1 [Example 175, 4-(3-(5-(6-fluoro-4-morpholino-7-(pyridin-3-yl)quinazolin-2-yl)pyridin-2-yl)ureido)-N,N-dimethyl-benzamide]
18 | 50 to 200 nM | 50 to 200 nM | CN(C)C(=O)c1ccc(NC(=O)Nc2cc(F)c(-c3nc(N4CCOCC4)c4ccc(-c5cncnc5)cc4n3)cc2F)cc1 [Example 279, 4-(3-(2,5-difluoro-4-(4-morpholino-7-(pyrimidin-5-yl)quinazolin-2-yl)phenyl)ureido)-N,N-dimethyl-benzamide]
19 | < 50 nM | < 50 nM | CN(C)C(=O)c1ccc(NC(=O)Nc2ccc(-c3nc(N4CCOCC4)c4ccc(-c5cnc(N)nc5)cc4n3)cc2)cc1 [Example 76, 4-(3-{4-[7-(2-amino-pyrimidin-5-yl)-4-morpholin-4-yl-quinazolin-2-yl]-phenyl}-ureido)-N,N-dimethyl-benzamide]
20 | < 50 nM | 50 to 200 nM | CN(C)CCNC(=O)c1ccc(NC(=O)Nc2ccc(-c3nc(N4CCOCC4)c4ccc(-c5cncnc5)cc4n3)cc2)cc1 [Example 192, N-(2-(dimethylamino)ethyl)-4-(3-(4-(4-morpholino-7-(pyrimidin-5-yl)quinazolin-2-yl)phenyl)ureido)-benzamide]
21 | < 50 nM | 50 to 200 nM | CN(C)CCNC(=O)c1ccc(-c2ccc3c(N4CCOCC4)nc(-c4ccc(NC(=O)Nc5ccc(C(=O)N(C)C)cc5)cc4)nc3c2)o1 [Example 225, N-(2-(dimethylamino)ethyl)-5-(2-(4-(3-(4-(dimethylcarbamoyl)phenyl)ureido)phenyl)-4-morpholino-quinazolin-7-yl)furan-2-carboxamide]

From patent US9115092B2, “Substituted quinazoline and pyrido-pyrimidine derivatives” (Asana Biosciences, LLC, priority 2010, dated 2015)
